Marks after values point to notes of the source that are not given here.
Columns and labels:
Type in all cases: biochemical
[1] = test system: β-Mannosidase (snail); experiment: Glycosidase inhibition: β-mannosidase (snail); conditions: 1000 μM
Source text: (§1) The enzymes α-glucosidase (from yeast, rice), β-glucosidase (from almonds, bovine liver), α-galactosidase (from coffee beans), β-galactosidase (from bovine liver), α-mannosidase (from jack beans), β-mannosidase (from snails), α-L-fucosidase (from bovine kidney), α-L-rhamnosidase (from Penicillium decumbens), β-glucuronidases (from Escherichia coli), α,α-trehalase (from porcine kidney), amyloglucosidase (from Aspergillus niger), p-nitrophenyl glycosides, and various disaccharides were purchased from Sigma-Aldrich Co. Brush border membranes were prepared from the rat small intestine according to the method of Kessler et al., and were assayed at pH 6.8 for rat intestinal maltase using maltose. For rat intestinal glucosidases and porcine kidney trehalase activities, the reaction mixture (0.2 mL) contained 25 mM substrate and the appropriate amount of enzyme, and the incubations were performed for 10 min at 37 °C. The reaction was stopped by heating at 100 °C for 3 min. After centrifugation (600 g; 10 min), 0.035 mL of the resulting reaction mixture were added to 2.1 mL of the Glucose CII-test Wako (Wako Pure Chemical Ind., Osaka, Japan). The absorbance at 505 nm was measured to determine the amount of the released D-glucose. Other glycosidase activities were determined using an appropriate p-nitrophenyl glycoside as substrate at the optimum pH of each enzyme. The reaction mixture (0.2 mL) contained 2 mM of the substrate and the appropriate amount of enzyme. The reaction was stopped by adding 0.4 mL of 400 mM Na2CO3. The released p-nitrophenol was measured spectrometrically at 400 nm.

[2] = molecular target: T1, β-Glucronidase (E.coli) (Escherichia coli, UniProt P05804); experiment: Glycosidase inhibition: β-glucuronidase (E. coli); conditions: β-glucuronidase, E. coli; 1000 μM
T1 construct: purchased Sigma-Aldrich Co
Source text: as §1

[3] = molecular target: T2, α-Galactosidase (coffee beans) (Coffea arabica, UniProt Q42656); experiment: Glycosidase inhibition: α-galactosidase (coffee beans); conditions: read-out: inhibition % at 1000 μM
T2 construct: purchased Sigma-Aldrich Co
Source text: as §1

[4] = molecular target: T3, α-Mannosidase (jack bean) (Canavalia ensiformis, UniProt C0HJB3); experiment: Glycosidase inhibition: α-mannosidase (jack bean)
T3 construct: purchased Sigma-Aldrich Co
T3 sequence (C0HJB3 1-981): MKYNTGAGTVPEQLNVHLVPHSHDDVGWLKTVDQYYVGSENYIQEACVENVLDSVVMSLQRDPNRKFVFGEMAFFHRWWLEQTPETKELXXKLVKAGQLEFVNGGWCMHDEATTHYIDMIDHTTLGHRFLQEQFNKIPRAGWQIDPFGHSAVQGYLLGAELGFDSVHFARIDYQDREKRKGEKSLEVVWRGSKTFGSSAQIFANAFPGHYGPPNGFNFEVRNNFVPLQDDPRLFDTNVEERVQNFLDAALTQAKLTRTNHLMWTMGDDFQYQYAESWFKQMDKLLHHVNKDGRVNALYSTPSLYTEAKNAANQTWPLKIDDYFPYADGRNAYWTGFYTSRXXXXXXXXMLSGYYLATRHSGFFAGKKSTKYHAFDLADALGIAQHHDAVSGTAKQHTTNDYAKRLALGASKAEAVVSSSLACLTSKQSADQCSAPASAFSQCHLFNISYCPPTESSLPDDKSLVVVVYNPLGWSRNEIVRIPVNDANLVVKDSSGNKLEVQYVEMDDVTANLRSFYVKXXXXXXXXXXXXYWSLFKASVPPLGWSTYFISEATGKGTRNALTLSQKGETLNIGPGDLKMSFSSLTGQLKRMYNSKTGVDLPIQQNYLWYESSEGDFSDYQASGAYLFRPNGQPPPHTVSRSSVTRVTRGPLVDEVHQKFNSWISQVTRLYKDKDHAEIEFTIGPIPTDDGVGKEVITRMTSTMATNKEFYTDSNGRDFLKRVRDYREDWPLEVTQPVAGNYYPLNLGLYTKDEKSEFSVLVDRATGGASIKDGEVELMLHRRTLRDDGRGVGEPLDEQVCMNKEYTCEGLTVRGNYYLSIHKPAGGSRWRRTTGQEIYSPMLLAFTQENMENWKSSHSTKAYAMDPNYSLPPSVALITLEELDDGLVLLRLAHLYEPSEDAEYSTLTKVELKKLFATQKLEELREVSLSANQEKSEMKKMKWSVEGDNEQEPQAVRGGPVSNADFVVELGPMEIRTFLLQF
Source text: as §1, with “After centrifugation (600 g; 10 min), 0.035 mL of the resulting reaction mixture were added to 2.1 mL of the Glucose CII-test Wako (Wako Pure Chemical Ind., Osaka, Japan).” left out, “The reaction mixture (0.2 mL) contained 2 mM of the substrate and the appropriate amount of enzyme. The reaction was stopped by adding 0.4 mL of 400 mM Na2CO3.” left out

[5] = molecular target: T4, α-L-Fucosidase (bovine kidney) (Bos taurus, UniProt Q2KIM0); experiment: Glycosidase inhibition: α-L-fucosidase (bovine kidney); conditions: read-out: inhibition % at 1000 μM
T4 construct: purchased Sigma-Aldrich Co; host or cells: bovine kidney
T4 sequence (Q2KIM0 23-468): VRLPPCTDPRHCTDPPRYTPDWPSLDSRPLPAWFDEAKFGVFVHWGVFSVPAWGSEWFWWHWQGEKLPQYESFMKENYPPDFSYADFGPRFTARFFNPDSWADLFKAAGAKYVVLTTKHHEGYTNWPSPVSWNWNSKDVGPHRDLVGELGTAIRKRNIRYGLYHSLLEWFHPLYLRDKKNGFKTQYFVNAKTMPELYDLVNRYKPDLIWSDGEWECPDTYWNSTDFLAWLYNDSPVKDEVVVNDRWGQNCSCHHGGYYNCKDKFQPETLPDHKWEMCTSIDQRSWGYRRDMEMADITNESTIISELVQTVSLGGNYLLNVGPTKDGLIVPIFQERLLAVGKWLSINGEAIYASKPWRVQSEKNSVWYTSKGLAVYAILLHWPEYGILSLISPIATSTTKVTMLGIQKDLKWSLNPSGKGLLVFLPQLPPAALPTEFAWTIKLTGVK
Source text: as §1

[6] = molecular target: T5, Amyloglucosidase (Aspergillus niger, UniProt P69328); experiment: Glycosidase inhibition: amyloglucosidase (Aspergillus niger); conditions: amyloglucosidase, Aspergillus niger; 1000 μM
T5 construct: purchased Sigma-Aldrich Co
Source text: as §1

[7] = molecular target: T6, α,α-Trehalase (porcine kidney) (Sus scrofa, UniProt I3LIR5); experiment: Glycosidase inhibition: α,α-trehalase (porcine kidney); conditions: read-out: inhibition % at 1000 μM
T6 construct: purchased Sigma-Aldrich Co; host or cells: porcine kidney
T6 sequence (I3LIR5 24-583): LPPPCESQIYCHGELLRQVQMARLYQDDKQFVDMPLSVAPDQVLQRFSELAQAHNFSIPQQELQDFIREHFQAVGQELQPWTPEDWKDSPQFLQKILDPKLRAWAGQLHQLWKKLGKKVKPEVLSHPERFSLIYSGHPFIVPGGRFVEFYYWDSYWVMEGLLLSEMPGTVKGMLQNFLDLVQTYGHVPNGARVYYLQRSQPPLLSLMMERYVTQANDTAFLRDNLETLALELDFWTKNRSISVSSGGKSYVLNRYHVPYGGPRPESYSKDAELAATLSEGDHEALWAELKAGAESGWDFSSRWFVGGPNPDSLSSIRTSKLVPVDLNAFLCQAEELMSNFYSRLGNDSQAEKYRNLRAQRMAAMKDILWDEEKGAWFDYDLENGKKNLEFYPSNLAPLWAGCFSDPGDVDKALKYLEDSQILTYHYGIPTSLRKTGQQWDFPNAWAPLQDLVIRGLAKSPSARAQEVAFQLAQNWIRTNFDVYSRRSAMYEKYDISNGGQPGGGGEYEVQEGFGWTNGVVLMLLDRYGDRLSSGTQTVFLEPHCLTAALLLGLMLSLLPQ
Source text: as §1, with “After centrifugation (600 g; 10 min), 0.035 mL of the resulting reaction mixture were added to 2.1 mL of the Glucose CII-test Wako (Wako Pure Chemical Ind., Osaka, Japan).” left out, “The reaction mixture (0.2 mL) contained 2 mM of the substrate and the appropriate amount of enzyme. The reaction was stopped by adding 0.4 mL of 400 mM Na2CO3.” left out

T1 sequence (P05804 whole entry): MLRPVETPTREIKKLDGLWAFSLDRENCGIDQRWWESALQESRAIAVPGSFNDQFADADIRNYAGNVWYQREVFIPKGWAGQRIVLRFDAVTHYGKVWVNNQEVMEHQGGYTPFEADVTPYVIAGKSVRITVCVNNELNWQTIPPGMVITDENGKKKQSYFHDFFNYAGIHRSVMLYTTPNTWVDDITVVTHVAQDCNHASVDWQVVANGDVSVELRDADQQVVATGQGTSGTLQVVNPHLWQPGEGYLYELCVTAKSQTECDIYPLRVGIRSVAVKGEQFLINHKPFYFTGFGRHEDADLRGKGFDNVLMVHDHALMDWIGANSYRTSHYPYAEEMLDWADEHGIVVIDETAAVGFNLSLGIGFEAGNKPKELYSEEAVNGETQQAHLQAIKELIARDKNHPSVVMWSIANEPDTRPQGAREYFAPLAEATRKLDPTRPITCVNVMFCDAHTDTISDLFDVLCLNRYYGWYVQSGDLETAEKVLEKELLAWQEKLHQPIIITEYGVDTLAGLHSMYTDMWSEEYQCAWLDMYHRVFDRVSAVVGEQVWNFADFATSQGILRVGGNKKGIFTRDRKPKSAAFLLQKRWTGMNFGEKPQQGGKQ
T2 sequence (Q42656 16-378): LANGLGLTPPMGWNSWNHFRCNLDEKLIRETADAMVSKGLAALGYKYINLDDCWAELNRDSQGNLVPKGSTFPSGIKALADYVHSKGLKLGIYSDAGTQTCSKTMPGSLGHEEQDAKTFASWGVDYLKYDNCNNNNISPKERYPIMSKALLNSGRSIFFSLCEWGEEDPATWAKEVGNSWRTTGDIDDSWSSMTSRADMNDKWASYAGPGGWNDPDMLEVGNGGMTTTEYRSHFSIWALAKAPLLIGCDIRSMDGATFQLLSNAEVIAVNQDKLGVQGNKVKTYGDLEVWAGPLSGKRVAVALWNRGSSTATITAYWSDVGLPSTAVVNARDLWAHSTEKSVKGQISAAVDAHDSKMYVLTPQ
T5 sequence (P69328 25-640): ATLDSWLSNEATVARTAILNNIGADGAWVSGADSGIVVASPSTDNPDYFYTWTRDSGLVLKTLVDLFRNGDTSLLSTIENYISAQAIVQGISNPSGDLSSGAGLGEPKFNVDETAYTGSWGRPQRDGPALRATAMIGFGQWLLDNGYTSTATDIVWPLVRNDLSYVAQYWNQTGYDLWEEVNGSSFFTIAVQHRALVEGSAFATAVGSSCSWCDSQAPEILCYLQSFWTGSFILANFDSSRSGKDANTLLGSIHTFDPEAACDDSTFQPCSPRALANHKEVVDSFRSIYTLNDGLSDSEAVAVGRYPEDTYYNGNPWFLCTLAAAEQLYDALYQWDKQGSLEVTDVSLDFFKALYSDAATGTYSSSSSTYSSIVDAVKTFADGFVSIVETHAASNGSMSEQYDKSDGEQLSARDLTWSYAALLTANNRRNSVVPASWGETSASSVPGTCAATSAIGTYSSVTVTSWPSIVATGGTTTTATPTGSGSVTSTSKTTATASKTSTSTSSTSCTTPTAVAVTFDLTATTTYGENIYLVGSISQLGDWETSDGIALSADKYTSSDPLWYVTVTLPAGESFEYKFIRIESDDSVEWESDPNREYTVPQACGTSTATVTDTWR

Row | Structure (SMILES) | inhibition % at 1000 μM [1] [% ^a] | inhibition at 1000 µM [2] [%] | inhibition at 1000 µM [3] [%] | inhibition at 1000 µM [4] [%] | inhibition at 1000 µM [5] [%] | inhibition at 1000 µM [6] [%] | inhibition at 1000 µM [7] [%]
1 | CC[C@@H]1CN[C@H]2C[C@@H](O)[C@H](O)[C@@H](O)[C@H]12 [Compound 10, (3S,3aR,4S,5S,6R,7aS)-3-Ethyloctahydro-1H-indole-4,5,6-triol] | 0 | 18.1 | 15.9 | 0 | 7.5 | 0 | 0
2 | CC[C@H]1CN[C@H]2C[C@@H](O)[C@H](O)[C@@H](O)[C@H]12 [Compound 13, (3R,3aR,4S,5S,6R,7aS)-3-ethyloctahydro-1H-indole-4,5,6-triol] | 2.3 | 12.3 | 0 | 0 | 12.9 | 0 | 0

Source: article PMC6631223, “Chain-Branched Polyhydroxylated Octahydro-1H-Indoles as Potential Leads against Lysosomal Storage Diseases” (Pharmaceuticals, 2019)
